For assay [1], the target named is T1, Human GPR40 (Homo sapiens, UniProt O14842). The experiment in a line: FLIPR assay, agonist-induced calcium mobilization in GPR40/CHO NFAT BLA cells. It counts as cell-based. Details: expressed in transfected cells. The protocol: (§1) Human and mouse GPR40 stable cell-lines were generated in CHO cells stably expressing NFAT BLA (Beta-lactamase). A human GPR40 stable cell-line was generated in HEK cells stably expressing the acquorin expressing reporter. The expression plasmids were transfected using lipofectamine (Life Technologies) following manufacturer's instructions. Stable cell-lines were generated following drug selection.
T1 sequence (O14842 whole entry): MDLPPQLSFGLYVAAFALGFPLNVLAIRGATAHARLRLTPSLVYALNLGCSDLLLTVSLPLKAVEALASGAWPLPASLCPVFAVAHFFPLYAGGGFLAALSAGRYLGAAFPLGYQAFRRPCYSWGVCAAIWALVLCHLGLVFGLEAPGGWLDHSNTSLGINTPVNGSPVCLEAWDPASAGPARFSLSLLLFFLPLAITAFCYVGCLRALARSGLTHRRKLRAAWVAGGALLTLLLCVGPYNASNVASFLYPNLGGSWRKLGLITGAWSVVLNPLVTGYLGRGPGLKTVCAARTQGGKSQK
FLIPR (Fluorimetric Imaging Plate Reader, Molecular Devices) assays were performed to measure agonist-induced calcium mobilization of the stable clones. For the FLIPR assay, one day before assay, GPR40/CHO NFAT BLA cells were seeded into black-wall-clear-bottom 384-well plates (Costar) at 1.4×10e4 cells/20 μL medium/well. The cells were incubated with 20 μl/well of the assay buffer (HBSS, 0.1% BSA, 20 mM HEPES, 2.5 mM probenecid, pH 7.4) containing 8 μM fluo-4, AM, 0.08% pluronic acid at room temperature for 100 minutes. Fluorescence output was measured using FLIPR. Compounds were dissolved in DMSO and diluted to desired concentrations with assay buffer. 13.3 μL/well of compound solution was added.
(Calcium assays in cells follow changes in intracellular calcium, usually with a dye or a luminescent sensor.)

The target in assay [2] is T1, Human GPR40. The assay is described as follows: Inositol Phosphate Turnover (IP1) assay in HEK cells stably expressing human GPR40. It is filed as cell-based. Details: expressed in transfected cells; host or cells: HEK cells stably expressing the aequorin reporter. The method, then:
as §1
The assay was performed in 96-well format. HEK cells stably expressing human GPR40 were plated to be 60-80% confluent within 72 h. After 72 h, the plates were aspirated and the cells washed with inositol-free DMEM (ICN). The wash media was replaced with 150 μL of 3H-inositol labeling media (inositol-free media containing 0.4% human albumin or 0.4% mouse albumin, 1× pen/strep antibiotics, glutamine, 25 mM HEPES to which was added 3H-myo-inositol NEN #NET114A 1 mCi/mL, 25 Ci/mmol diluted 1:150 in loading media with a final specific radioactivity of 1 μCi/150 μL). Alternatively, the human and mouse albumin were added after the overnight labeling step before the addition of LiCl.
The assay was typically run the next day after 18 h labeling. On the day of the assay, 5 μL of 300 mM LiCl were added to all wells and incubated at 37 degrees for 20 min. 0.75 μL of 200× compounds were added and incubated with the cells for 60 min at 37 degrees. The media was then aspirated off and the assay terminated with the addition of 60 μL 10 mM formic acid. The cells were lysed for 60 min at room temperature. 15-30 μL of lysate was mixed with 70 μL/1 mg YSi SPA beads (Amersham) in clear bottom Isoplates. The plates were shaken for 2 h at room temperature. Beads were allowed to settle and the plates are counted in the Wallac Microbeta.

For orientation: EC50 means the concentration needed to bring the measured effect to its halfway point. As to `COc1ccc(F)c(-c2ccc3c(c2)CC[C@H]3Oc2cccc([C@H](C3CC3)[C@H](C)C(=O)O)c2)c1` [Example 2], the EC50 was determined as 0.4 nM on Human GPR40 [1] and 2.9 nM at Human GPR40 [2].
On to `COc1ccc(F)c(-c2cnc3c(c2)CC[C@H]3Oc2cccc([C@H](C3CC3)[C@H](C)C(=O)O)c2)c1` [Example 40], for which the 50% effective concentration (EC50) at Human GPR40 [1] worked out at 2 nM; on Human GPR40 [2], 91 nM.
Consider `COc1ccc(F)c(-c2ccc3c(c2F)CC[C@H]3Oc2cccc([C@@H](CC(=O)O)C3CC3)c2)c1` [Example 34], for which the EC50 at Human GPR40 [1] amounted to 4 nM; on Human GPR40 [2] it was 107 nM.
`C[C@H](C(=O)O)[C@H](c1cccc(O[C@@H]2CCc3cc(-c4cc(O)ccc4F)ccc32)c1)C1CC1` [Example 35]: the figures for the 50% effective concentration (EC50) at Human GPR40 [1] and on Human GPR40 [2] were 0.2 nM and 2.9 nM, respectively.
For the molecule `COc1ccc(F)c(-c2cc3c(cc2F)[C@H](Oc2cccc([C@@H](CC(=O)O)C4CC4)c2)CC3)c1` [Example 39], the results for the EC50 on Human GPR40 [1] and at Human GPR40 [2] were 5 nM and 151 nM, respectively.
As to `COc1ccc(F)c(-c2cc3c(cc2F)[C@H](Oc2cccc([C@@H](CC(=O)O)C4CC4)c2)CC3)c1` [Example 33], the EC50 on Human GPR40 [1] was 12 nM; at Human GPR40 [2], 155 nM.
Regarding `COc1ccc(F)c(-c2cc3c(cn2)[C@H](Oc2cccc([C@H](C4CC4)[C@H](C)C(=O)O)c2)CC3)c1` [Example 41], the results for the EC50 on Human GPR40 [1] and at Human GPR40 [2] were below 0.2 nM and 15 nM, respectively.
Turning to `COc1ccc(F)c(-c2ccc3c(c2)CC[C@H]3Oc2cccc([C@H](C3CC3)[C@@H](C)C(=O)O)c2F)c1` [Example 5], the results for the concentration for a half-maximal effect (EC50) at Human GPR40 [1] and on Human GPR40 [2] were 8 nM and 154 nM, respectively.
With `COc1ccc(F)c(-c2ccc3c(n2)CC[C@H]3Oc2cccc([C@@H](CC(=O)O)C3CC3)c2)c1` [Example 38], the figures for the EC50 on Human GPR40 [1] and on Human GPR40 [2] were 17 nM and 895 nM, respectively.
Turning to `COc1ccc(F)c(-c2ccc3c(c2C#N)CC[C@H]3Oc2cccc([C@@H](CC(=O)O)C3CC3)c2)c1` [Example 30], the EC50 was 22 nM on Human GPR40 [1] and 412 nM at Human GPR40 [2].
Taken in the same sequence, the figures for `COc1ccc(F)c(-c2ccc3c(c2-c2cccc4ccn(C)c24)CC[C@H]3Oc2cccc([C@H](C3CC3)[C@H](C)C(=O)O)c2)c1` [Example 37] were 1 nM and 145 nM.
Taken in the same sequence, the figures for `COc1ccc(F)c(-c2ccc3c(c2F)CC[C@H]3Oc2cccc([C@H](C3CC3)[C@H](C)C(=O)O)c2)c1` [Example 32] were 0.4 nM and 4.5 nM.
On to `COc1ccc(F)c(-c2ccc3c(c2Cl)CC[C@H]3Oc2cccc([C@@H](CC(=O)O)C3CC3)c2)c1` [Example 36], for which the figures for the EC50 at Human GPR40 [1] and on Human GPR40 [2] were 7 nM and 357 nM, respectively.
Turning to `COc1ccc(F)c(-c2cc(F)c3c(c2)CC[C@H]3Oc2cccc([C@@H](CC(=O)O)C3CC3)c2)c1` [Example 31], the EC50 at Human GPR40 [1] was 36 nM; on Human GPR40 [2], 2160 nM.
For `COc1ccc(F)c(-c2ccc3c(c2)CC[C@H]3Oc2cccc([C@H](C3CC3)[C@H](C)C(=O)O)c2F)c1` [Example 4], the values for the EC50 on Human GPR40 [1] and at Human GPR40 [2] were 0.2 nM and 2.8 nM, respectively.
With `COc1ccc(F)c(-c2ccc3c(c2)CC[C@H]3Oc2cccc([C@@H](CC(=O)O)C3CC3)c2)c1` [Example 1], the EC50 was 2 nM on Human GPR40 [1] and 64 nM at Human GPR40 [2].

For the origin of these results see patent publication US9957219B2, “Antidiabetic bicyclic compounds” (Merck Sharp & Dohme Corp., priority 2013, dated 2018).
